Test results from patent US20070014845A1, “Liposomal delivery vehicle for hydrophobic drugs” (priority 2005, published 2007).

What was measured:
[1] = cited from earlier work
[2] = Drug concentration of filtered drug/cyclodextrin hydration solutions (HPLC); format: physicochemical; details: for drug concentration of filtered cyclodextrin solution: 10 mM histidine, 15 mM NaCl, pH 6.8, incubated 45° C. for 2 hours; for final drug concentration assayed by HPLC: 50 w/v % hydroxypropyl-β-cyclodextrin
Description: A similar solution containing 30% cyclodextrin was prepared by dissolving 30 g of hydroxypropyl-β-cyclodextrin in a 100 mL of water. The solution also contained 10 mM histidine and 15 mM NaCl. The final osmolality was 451 mOsm/kg (Wescor Osmometer) and the pH was 6.8. Drug (RWJ-425457) was added to the cyclodextrin solution, incubated (45° C. for 2 hours), and filtered, to yield a drug concentration of 9.9 mg/mL.
A similar solution containing 20% cyclodextrin was prepared by dissolving 20 g of hydroxypropyl-β-cyclodextrin in a 100 mL of buffer (10 mM histidine and 15 mM NaCl). The final osmolality was 199 mOsm/kg (Wescor Osmometer) and the pH was 6.8. Drug (RWJ-425457) was added to the cyclodextrin solution, incubated (45° C. for 2 hours) and filtered, to yield a drug concentration of 4.8 mg/mL.
A liposome formulation with no cholesterol, formulation no. 11, was also prepared as follows. A lipid mixture of HSPC/mPEG-DSPE 95:5 mol/mol (11.3 g HSPC and 2.1 g mPEG-DSPE) was solubilized in 10 mL ethanol at about 65 ° C. A 50% hydroxypropyl-β-cyclodextrin solution was made by solubilizing 50 g of the cyclodextrin in a total volume of 100 mL water. The osmolality was 720 mOsm/kg and the pH was 7.4. In a separate container 1.004 g of drug (RWJ416457) was placed in 100 mL of the 50 w/v % cyclodextrin solution. The mixture was stirred for 1 hour at 45° C. and then 3 hours at room temperature followed by filtration to removw any un-dissolved drug in the solution. The final drug concentration assayed by HPLC was 7.58 mg/mL and the osmolality of the hydration medium was 771 mOsm/kg. The lipid solution was then mixed with 90 mL of the drug/cyclodextrin solution (pre-warmed to 65° C.) followed by stirring at 65° C. for 1 hour to form a suspension of liposomes, identified as formulation no. 11.
A 50% hydroxypropyl-β-cyclodextrin solution was made by solubilizing 50.0 g of the cyclodextrin in a total volume of 100 mL water. The final osmolality was 720 mOsm/kg (Wescor Osmometer) and the pH was 7.4. In a separate container 1.004 g of drug (RWJ416457) was placed in 100 mL of the 50 w/v % cyclodextrin solution. The mixture was stirred for 4 hours at room temperature followed by filtration to remove any drug in the external solution. The final drug concentration assayed by HPLC was 7.58 mg/mL and osmolality was 771 mOsm/kg.

[3] = Solubility of RWJ-416457 in hydroxypropyl-β-cyclodextrin and sulfobutylether-β-cyclodextrin solutions (HPLC); format: physicochemical
Description: Various liposomal formulations were prepared to perform supporting and illustrative studies. […] The solubility of the drug in the cyclodextrin solutions was determined.
The solubility of an antimicrobial oxazolidinone drug identified as RWJ-416457 in 40 w/v % hydroxylpropyl-β-cyclodextrin and in 20 w/v % sulfobutylether-β-cyclodextrin under various conditions of pH, temperature, and incubation time was determined as follows. About 15 mgs of drug was added to 5 mL of each cyclodextrin solution followed by incubation under one of three conditions: (1) with stirring at 45° C. for 2 hours; (2) with stirring at 45° C. for 2 hours followed by stirring at room temperature (25° C.) for 3 days; or (3) with stirring at room temperature (25° C.) for 3 days. After incubation, any non-solubilized drug crystals were removed either by centrifugation using a bench top centrifuge at 3000 rpm or by filtration using a hand-held syringe with a filter with 0.2 μm pore size. The drug concentration of the supernatant or the filtrate was then determined by high performance liquid chromatography (HPLC).

2-Hydroxypropyl-β-cyclodextrin
Solubility in water [1]: >600 mg/mL

2-Hydroxypropyl-γ-cyclodextrin
Solubility in water [1]: >500 mg/mL

CC(=O)NC[C@H]1CN(c2ccc(N3Cc4cn(C)nc4C3)c(F)c2)C(=O)O1 [RWJ-416457]
drug concentration of filtered cyclodextrin solution ([2]; 20% hydroxypropyl-β-cyclodextrin): 4.8 mg/mL
drug concentration of filtered cyclodextrin solution ([2]; 30% hydroxypropyl-β-cyclodextrin): 9.9 mg/mL
final drug concentration assayed by HPLC ([2]; stirred 1 hour at 45° C. then 3 hours at room temperature): 7.58 mg/mL
final drug concentration assayed by HPLC ([2]; stirred 4 hours at room temperature): 7.58 mg/mL
Solubility of RWJ-416457 ([3]; Sample 1, pH 8.54, HP-β-CD 40%, 3 days RT, Filter): 8.13 mg/mL
Solubility of RWJ-416457 ([3]; Sample 2, pH 8.54, HP-β-CD 40%, 45° C. 2 hrs + 3 days RT, Filter): 9.46 mg/mL
Solubility of RWJ-416457 ([3]; Sample 2, pH 8.54, HP-β-CD 40%, 45° C. 2 hrs, Centrifuge): 9.37 mg/mL
Solubility of RWJ-416457 ([3]; Sample 2, pH 8.54, HP-β-CD 40%, 45° C. 2 hrs, Filter): 9.26 mg/mL
Solubility of RWJ-416457 ([3]; Sample 3, pH 3.21, HP-β-CD 40%, 3 days RT, Filter): 7.6 mg/mL
Solubility of RWJ-416457 ([3]; Sample 4, pH 3.21, HP-β-CD 40%, 45° C. 2 hrs + 3 days RT, Filter): 9.08 mg/mL
Solubility of RWJ-416457 ([3]; Sample 4, pH 3.21, HP-β-CD 40%, 45° C. 2 hrs, Centrifuge): 9.23 mg/mL
Solubility of RWJ-416457 ([3]; Sample 4, pH 3.21, HP-β-CD 40%, 45° C. 2 hrs, Filter): 9.16 mg/mL
Solubility of RWJ-416457 ([3]; Sample 5, pH 4.58, HP-β-CD 40%, 3 days RT, Filter): 7.21 mg/mL
Solubility of RWJ-416457 ([3]; Sample 6, pH 4.58, HP-β-CD 40%, 45° C. 2 hrs + 3 days RT, Filter): 9.1 mg/mL
Solubility of RWJ-416457 ([3]; Sample 6, pH 4.58, HP-β-CD 40%, 45° C. 2 hrs, Centrifuge): 9.17 mg/mL
Solubility of RWJ-416457 ([3]; Sample 6, pH 4.58, HP-β-CD 40%, 45° C. 2 hrs, Filter): 9.16 mg/mL
Solubility of RWJ-416457 ([3]; Sample 7, pH 6.94, SBE-β-CD 20%, 45° C. 2 hrs + 3 days RT, Filter): 4.45 mg/mL
Solubility of RWJ-416457 ([3]; Sample 7, pH 6.94, SBE-β-CD 20%, 45° C. 2 hrs, Centrifuge): 4.75 mg/mL
Solubility of RWJ-416457 ([3]; Sample 7, pH 6.94, SBE-β-CD 20%, 45° C. 2 hrs, Filter): 4.55 mg/mL
drug solubility ([3]; in 20% sulfobutylether-β-cyclodextrin (summary of Example 1A)): above 4.5 mg/mL
solubility ([3]; in 20 w/v % sulfobutylether-β-cyclodextrin at 45° C.): about 4.5 mg/mL
drug solubility ([3]; in 40 w/v % hydroxypropyl-β-cyclodextrin (summary of Example 1A)): above 9 mg/mL
solubility ([3]; in 40 w/v % hydroxypropyl-β-cyclodextrin at 45° C.): about 9.1 mg/mL
solubility ([3]; in 40 w/v % hydroxypropyl-β-cyclodextrin at room temperature): about 7.6 mg/mL

OC[C@H]1O[C@@H]2O[C@H]3[C@H](O)[C@@H](O)[C@@H](O[C@H]4[C@H](O)[C@@H](O)[C@@H](O[C@H]5[C@H](O)[C@@H](O)[C@@H](O[C@H]6[C@H](O)[C@@H](O)[C@@H](O[C@H]7[C@H](O)[C@@H](O)[C@@H](O[C@H]8[C@H](O)[C@@H](O)[C@@H](O[C@H]9[C@H](O)[C@@H](O)[C@@H](O[C@H]%10[C@H](O)[C@@H](O)[C@@H](O[C@H]1[C@H](O)[C@H]2O)O[C@@H]%10CO)O[C@@H]9CO)O[C@@H]8CO)O[C@@H]7CO)O[C@@H]6CO)O[C@@H]5CO)O[C@@H]4CO)O[C@@H]3CO [δ-cyclodextrin]
water solubility (at 25° C., g/100 mL) ([1]; at 25° C.): 8.19 g/100 mL

Randomly Methylated β-cyclodextrin
Solubility in water [1]: >500 mg/mL

β-Cyclodextrin sulfobutyl ether sodium salt
Solubility in water [1]: >500 mg/mL
